From ChEMBL document CHEMBL1144685, “Naphthamides as novel and potent vascular endothelial growth factor receptor tyrosine kinase inhibitors: design, synthesis, and evaluation” (J Med Chem, 2008)
Active and inactive are the calls of the source. The rule behind the calls is not given here.

What was measured:
HUVEC [1] = assay: cells; settings: Homo sapiens
Description: Inhibition of bFGF-induced proliferation of HUVEC cells

[2] = molecular target: Vascular endothelial growth factor receptor 2 (Homo sapiens, UniProt P35968)
Description: Inhibition of KDR by HTRF assay

HUVEC [3] = assay: cells; settings: Homo sapiens; remark: listed apart in the source
Description: Inhibition of VEGF-induced proliferation of HUVEC cells

[4] = Volume of distribution at steady state in Sprague-Dawley rat at 1 mg/kg, iv; format: ADME, organism-based; design: dose 1 mg/kg, route intravenous; settings: in vivo, read-out: Vdss
[5] = Mean retention time in Sprague-Dawley rat at 1 mg/kg, iv; format: ADME, organism-based; design: dose 1 mg/kg, route intravenous; settings: in vivo
[6] = AUC (0 to 24 hrs) in Sprague-Dawley rat at 10 mg/kg, po; format: ADME, organism-based; design: time < 24 hr, dose 10 mg/kg, route oral; settings: plasma
[7] = Oral bioavailability in Sprague-Dawley rat at 10 mg/kg; format: ADME, organism-based; settings: in vivo
[8] = Half life in Sprague-Dawley rat at 1 mg/kg, iv; format: ADME, organism-based; design: dose 1 mg/kg, route intravenous; settings: in vivo
[9] = Intrinsic clearance in rat liver microsomes; format: ADME, Microsome
[10] = Intrinsic clearance in human liver microsomes; format: ADME, Microsome
Cytochrome P450 3A4 = Cytochrome P450 3A4 (Homo sapiens, UniProt P08684)
[11] = Cmax in Sprague-Dawley rat at 10 mg/kg, po; format: ADME, organism-based; design: dose 10 mg/kg, route oral; settings: in vivo
Cytochrome P450 2D6 = Cytochrome P450 2D6 (Homo sapiens, UniProt P10635)
[12] = Clearance in Sprague-Dawley rat at 1 mg/kg, iv; format: ADME, organism-based; design: dose 1 mg/kg, route intravenous; settings: in vivo
[13] = Mean retention time in Sprague-Dawley rat at 0.5 mg/kg, iv; format: ADME, organism-based; design: dose 0.5 mg/kg, route intravenous; settings: in vivo
[14] = Volume of distribution at steady state in Sprague-Dawley rat at 0.5 mg/kg, iv; format: ADME, organism-based; design: dose 0.5 mg/kg, route intravenous; settings: in vivo, read-out: Vdss
[15] = Half life in Sprague-Dawley rat at 0.5 mg/kg, iv; format: ADME, organism-based; design: dose 0.5 mg/kg, route intravenous; settings: in vivo
[16] = Clearance in Sprague-Dawley rat at 0.5 mg/kg, iv; format: ADME, organism-based; design: dose 0.5 mg/kg, route intravenous; settings: in vivo
HT-29 [17] = assay: Antitumor activity against human HT29 cell xenografted CD1 nu/nu mouse assessed as inhibition of tumor growth at 10 mg/kg, po after 7 days; format: functional, organism-based; design: dose 10 mg/kg
Mus musculus [18] = species on record: Mus musculus; assay: Inhibition of mouse KDR phosphorylation in BALB/c mouse lung assessed as phosphorylated Flk1 level by Delphia assay; format: functional, organism-based
HT-29 [19] = assay: Antitumor activity against human HT29 cell xenografted CD1 nu/nu mouse assessed as inhibition of tumor growth at 30 mg/kg, po after 10 days; format: functional, organism-based; design: dose 30 mg/kg
Mus musculus [20] = assay: Inhibition of vascular permeability in HEK293 cells over expressing recombinant mouse VEGF implanted CD1 nu/nu mouse at 100 mg/kg, po by Matrigel plug assay; format: functional, organism-based; design: dose 100 mg/kg
Mus musculus [21] = assay: Inhibition of vascular permeability in HEK293 cells over expressing recombinant mouse VEGF implanted CD1 nu/nu mouse at 30 mg/kg, po by Matrigel plug assay; format: functional, organism-based; design: dose 30 mg/kg

Sequence of Cytochrome P450 2D6 (P10635 whole entry): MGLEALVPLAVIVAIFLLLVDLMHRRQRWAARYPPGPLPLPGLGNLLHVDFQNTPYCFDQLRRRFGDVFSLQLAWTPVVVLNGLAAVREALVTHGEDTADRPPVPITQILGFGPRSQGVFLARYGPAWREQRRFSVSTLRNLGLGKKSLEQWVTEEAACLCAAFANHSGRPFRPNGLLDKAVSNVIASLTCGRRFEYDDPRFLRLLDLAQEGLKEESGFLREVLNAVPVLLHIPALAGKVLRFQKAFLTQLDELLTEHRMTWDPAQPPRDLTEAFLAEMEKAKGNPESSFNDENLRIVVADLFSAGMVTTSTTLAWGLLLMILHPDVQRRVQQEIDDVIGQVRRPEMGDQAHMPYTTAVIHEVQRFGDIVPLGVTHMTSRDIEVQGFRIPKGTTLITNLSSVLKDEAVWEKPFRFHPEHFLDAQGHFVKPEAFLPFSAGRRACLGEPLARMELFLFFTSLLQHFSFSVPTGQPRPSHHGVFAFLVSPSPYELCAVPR
Sequence of Vascular endothelial growth factor receptor 2 (P35968 whole entry): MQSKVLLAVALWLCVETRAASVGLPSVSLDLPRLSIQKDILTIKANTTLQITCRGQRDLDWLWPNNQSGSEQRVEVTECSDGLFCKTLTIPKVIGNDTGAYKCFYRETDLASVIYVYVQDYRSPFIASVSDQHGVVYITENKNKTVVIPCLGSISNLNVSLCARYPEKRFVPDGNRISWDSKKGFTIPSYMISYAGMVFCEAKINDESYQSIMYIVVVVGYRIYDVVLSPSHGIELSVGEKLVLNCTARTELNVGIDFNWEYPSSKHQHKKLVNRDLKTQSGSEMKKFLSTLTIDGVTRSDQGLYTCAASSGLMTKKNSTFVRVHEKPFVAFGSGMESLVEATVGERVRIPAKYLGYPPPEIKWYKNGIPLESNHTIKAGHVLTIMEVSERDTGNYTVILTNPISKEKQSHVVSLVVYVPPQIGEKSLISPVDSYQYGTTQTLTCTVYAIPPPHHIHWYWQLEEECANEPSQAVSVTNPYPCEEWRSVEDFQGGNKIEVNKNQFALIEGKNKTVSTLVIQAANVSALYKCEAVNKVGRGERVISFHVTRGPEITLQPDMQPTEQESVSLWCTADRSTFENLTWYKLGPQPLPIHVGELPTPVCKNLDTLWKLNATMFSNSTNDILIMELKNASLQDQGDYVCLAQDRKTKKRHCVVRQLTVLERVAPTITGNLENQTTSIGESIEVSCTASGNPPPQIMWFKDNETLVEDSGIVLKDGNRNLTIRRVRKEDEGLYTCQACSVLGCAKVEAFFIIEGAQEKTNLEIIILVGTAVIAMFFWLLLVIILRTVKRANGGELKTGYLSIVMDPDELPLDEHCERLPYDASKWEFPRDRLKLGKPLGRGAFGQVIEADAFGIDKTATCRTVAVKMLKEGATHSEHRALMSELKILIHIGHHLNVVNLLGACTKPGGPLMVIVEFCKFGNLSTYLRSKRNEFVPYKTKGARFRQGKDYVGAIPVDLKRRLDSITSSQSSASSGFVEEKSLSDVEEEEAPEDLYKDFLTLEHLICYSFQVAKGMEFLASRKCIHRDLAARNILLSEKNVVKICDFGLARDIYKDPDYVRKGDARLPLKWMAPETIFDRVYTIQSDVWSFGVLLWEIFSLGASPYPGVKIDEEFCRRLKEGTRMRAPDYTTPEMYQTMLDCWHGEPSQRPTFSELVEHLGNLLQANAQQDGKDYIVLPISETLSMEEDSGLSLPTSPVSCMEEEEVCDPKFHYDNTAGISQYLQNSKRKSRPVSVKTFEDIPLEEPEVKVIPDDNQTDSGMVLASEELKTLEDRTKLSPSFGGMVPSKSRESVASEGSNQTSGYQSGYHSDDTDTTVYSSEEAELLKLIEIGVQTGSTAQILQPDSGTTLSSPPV
Sequence of Cytochrome P450 3A4 (P08684 whole entry): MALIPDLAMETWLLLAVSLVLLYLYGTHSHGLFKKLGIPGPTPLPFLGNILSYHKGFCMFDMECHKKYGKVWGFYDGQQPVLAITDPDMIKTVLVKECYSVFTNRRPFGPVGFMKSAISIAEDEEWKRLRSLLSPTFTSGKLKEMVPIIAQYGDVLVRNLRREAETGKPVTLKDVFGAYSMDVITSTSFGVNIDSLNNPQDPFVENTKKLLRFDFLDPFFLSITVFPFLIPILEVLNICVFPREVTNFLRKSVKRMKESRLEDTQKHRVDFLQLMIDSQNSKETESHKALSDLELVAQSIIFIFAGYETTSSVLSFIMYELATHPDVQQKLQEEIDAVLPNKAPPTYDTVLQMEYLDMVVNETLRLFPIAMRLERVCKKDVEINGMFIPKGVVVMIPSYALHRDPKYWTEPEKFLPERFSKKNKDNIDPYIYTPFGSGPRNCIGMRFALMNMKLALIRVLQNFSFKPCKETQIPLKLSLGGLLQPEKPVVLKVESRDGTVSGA

Compound | IC50 (HUVEC [1]) [nM] | IC50 [2] [nM] | IC50 (HUVEC [3]) [nM] | further results
COc1cc2nccc(Oc3ccc4c(C(=O)Nc5ccc(Cl)cc5)cccc4c3)c2cc1C(N)=O | 380 | 0.2 | 3 | 
COc1cc2nccc(Oc3cc4cccc(C(=O)Nc5ccc(Cl)cc5)c4cn3)c2cc1OC | > 1140 | 23 | 175 | 
COc1cc2nccc(Oc3ccc4c(C(=O)NC5CCC5)cccc4c3)c2cc1OC | > 1140 | 3 | 7 | 
COc1cc2nccc(Oc3ccc4c(C(=O)Nc5cccnc5)cccc4c3)c2cc1OC | 1100 | 0.8 | 2 | Vd [4]: 1.3 L/kg; MRT [5]: 1.4 h; AUC(0-t) at 24 h [6]: 27100 ng·h/mL; bioavailability [7]: 100%; half-life [8]: 1.1 h; microsomal CLint [9]: 90 µL/min/mg; microsomal CLint [10]: 90 µL/min/mg; IC50 (Cytochrome P450 3A4): 2000 nM; Cmax [11]: 5710 ng/mL; IC50 (Cytochrome P450 2D6): 17000 nM; clearance [12]: 15 mL/min/kg
COc1cc2nccc(Oc3ccc4c(C(=O)Nc5cccc(F)c5)cccc4c3)c2cc1OC |  | 0.6 | 3 | 
COc1cc2nccc(Oc3ccc4c(C(=O)NC(C)C)cccc4c3)c2cc1OC | > 1140 | 5 | 4 | 
COc1cc2nccc(Oc3ccc4c(C(=O)Nc5cccc(Cl)c5)cccc4c3)c2cc1OC |  | 0.3 | 5.1 | 
COc1cc2nccc(Oc3ccc4c(C(=O)Nc5ccncc5)cccc4c3)c2cc1OC | > 1140 | 2 | 2 | Vd [4]: 1.4 L/kg; MRT [5]: 2.5 h; AUC(0-t) at 24 h [6]: 11000 ng·h/mL; bioavailability [7]: 62%; half-life [8]: 1.8 h; microsomal CLint [9]: 80 µL/min/mg; microsomal CLint [10]: 30 µL/min/mg; IC50 (Cytochrome P450 3A4): 100 nM; Cmax [11]: 1690 ng/mL; IC50 (Cytochrome P450 2D6): 700 nM; clearance [12]: 10 mL/min/kg
COc1cc2nccc(Oc3ccc4c(C(=O)Nc5cc(C)no5)cccc4c3)c2cc1OC | > 1140 | 1 | 7 | MRT [13]: 2.1 h; Vd [14]: 2.7 L/kg; microsomal CLint [9]: 40 µL/min/mg; microsomal CLint [10]: 40 µL/min/mg; half-life [15]: 2.4 h; IC50 (Cytochrome P450 3A4): 40000 nM; clearance [16]: 21.7 mL/min/kg; IC50 (Cytochrome P450 2D6): > 50000 nM
COc1cc2nccc(Oc3ccc4c(C(=O)Nc5ccon5)cccc4c3)c2cc1OC |  | 0.2 |  | 
COc1cc2nccc(Oc3ccc4c(C(=O)Nc5ccc(C(C)(C)C)cc5)cccc4c3)c2cc1OC | 944 | 0.7 | 63 | 
COc1cc2nccc(Oc3ccc4c(C(=O)Nc5ccccc5)cccc4c3)c2cc1OC | 577 | 0.2 | 0.8 | 
COc1cc2nccc(Oc3ccc4c(C(=O)Nc5ccc(Cl)cc5Cl)cccc4c3)c2cc1OC | > 1140 | 2 | 14 | 
O=C(Nc1ccc(Cl)cc1)c1cccc2cc(Oc3ncnc4[nH]ccc34)ccc12 | > 1140 | 28 | 37 | 
COc1cc2nccc(Oc3ccc4c(C(=O)Nc5ccc(Cl)cc5)ccnc4c3)c2cc1OC | 88 | 22 | 10 | 
COc1cc2nccc(Oc3ccc4c(C(=O)Nc5ccccc5F)cccc4c3)c2cc1OC | > 1140 | 2 | 7 | 
COc1cc2nccc(Oc3ccc4c(C(=O)Nc5ccc(Cl)cc5)cccc4c3)c2cc1OC |  |  |  | Activity (HT-29 [17]): Active; Activity (Mus musculus [18]): Active; Activity (HT-29 [19]): Active; Activity (Mus musculus [20]): Dose-dependent effect; Activity (Mus musculus [21]): Dose-dependent effect
COc1cc2nccc(Nc3ccc4c(C(=O)Nc5ccc(Cl)cc5)cccc4c3)c2cc1OC | 115 | 8 | 14 | 
CNc1cc(Oc2ccc3c(C(=O)Nc4ccc(Cl)cc4)cccc3c2)ncn1 | > 1100 | 20 | 106 | 
COc1cc2nccc(Oc3ccc4c(C(=O)Nc5cc(C(C)(C)C)on5)cccc4c3)c2cc1OC | 190 | 0.8 | 68 | 
CNC(=O)c1cc(Oc2ccc3c(C(=O)Nc4ccc(Cl)cc4)cccc3c2)ccn1 | > 1100 | 3 | 210 | 

Compound | IC50 (HUVEC [1]) [nM] | IC50 [2] [nM] | IC50 (HUVEC [3]) [nM] | further results
COc1cc2nccc(Oc3ccc4c(C(=O)NC5(C)CC5)cccc4c3)c2cc1OC |  | 15 |  | 
COc1cc2ncc(F)c(Oc3ccc4c(C(=O)Nc5ccc(Cl)cc5)cccc4c3)c2cc1OC | > 1100 | 20 | 69 | 
COc1cc2nccc(Oc3ccc4c(C(=O)Nc5cccc(C(F)(F)F)c5)cccc4c3)c2cc1OC | 205 | 0.5 | 34 | 
CCCNC(=O)c1cccc2cc(Oc3ccnc4cc(OC)c(OC)cc34)ccc12 | > 1140 | 1.3 | 7 | 
COc1cc2nccc(Oc3ccc4c(C(=O)Nc5ccc(Cl)c(C(F)(F)F)c5)cccc4c3)c2cc1OC | 228 | 1 | 247 | 
COc1ccc2c(Oc3ccc4c(C(=O)Nc5ccc(Cl)cc5)cccc4c3)ccnc2c1 | > 1100 | 1 | 8 | 
COc1cc2nccc(Oc3ccc4c(C(=O)Nc5nccs5)cccc4c3)c2cc1OC | 605 |  | 2 | 
O=C(Nc1ccc(Cl)cc1)c1cccc2cc(Oc3ccncc3)ccc12 | > 1100 | 18 | 220 | 
O=C(Nc1ccc(Cl)cc1)c1cccc2cc(Oc3ccnc4ccccc34)ccc12 | > 1100 | 4 | 34 | 
COc1cc2nccc(Oc3ccc4c(C(=O)Nc5ccc(F)cc5)cccc4c3)c2cc1OC | 305 | 1 | 2 | 
COc1cc2nccc(Oc3ccc4c(C(=O)Nc5cc(Cl)cc(Cl)c5)cccc4c3)c2cc1OC | 742 | 0.3 | 28 | 
CNc1cc(Oc2ccc3c(C(=O)Nc4ccc(Cl)cc4)cccc3c2)ccn1 | > 1100 | 7 | 140 | 
CNc1nccc(Oc2ccc3c(C(=O)Nc4ccc(Cl)cc4)cccc3c2)n1 | > 1100 | 46 | 296 | 
COc1cc2nccc(Oc3ccc4c(C(=O)Nc5ccc(C(F)(F)F)cc5)cccc4c3)c2cc1OC | 228 | 0.5 | 16 | 
COc1cc2nccc(Oc3ccc4c(C(=O)Nc5ccc(C)cc5)cccc4c3)c2cc1OC | 548 | 0.5 | 2 | 
COc1cc2nccc(Oc3ccc4c(C(=O)NC5CC5)cccc4c3)c2cc1OC |  |  | 1 | 
COc1cc2nccc(Oc3ccc4c(C(=O)Nc5cc(C)on5)cccc4c3)c2cc1OC | 250 | 0.6 | 6 | 
COc1cc2nccc(N(C)c3ccc4c(C(=O)Nc5ccc(Cl)cc5)cccc4c3)c2cc1OC |  | > 1400 |  | 
O=C(Nc1ccc(Cl)cc1)c1cccc2cc(Oc3ccncn3)ccc12 |  | 310 |  | 
COc1cc2nccc(Oc3ccc4c(C(=O)NC5CCCC5)cccc4c3)c2cc1OC | > 1140 | 9 | 7 | 
